Source: patent US20030186946A1, “Suppression of cytotoxic protein conformers” (priority 2002, published 2003)
Like-named read-outs stand apart in the source and are kept apart here.

Legend:
RINm5F cells = test: Cytotoxicity assay in RINm5F cells (calcein-AM / ethidium homodimer-1 staining); conditions: for cytotoxicity of amylin peptide to RINm5F cells: 30 μM peptide, 22 h, compared to vehicle control
Description: Cell Culture and Cytotoxicity Assays. RINm5F cells were cultured in RPMI 1640 medium containing 10% fetal bovine serum, 290 μg/mL L-glutamine, 100 IU/mL penicillin and 100 μg/mL streptomycin. Cells were plated at a density of 15×1 cells per well, incubated for 48 h, rinsed with PBS and placed in fresh medium containing Congo red. Freshly prepared human amylin in Milli-Q water, was preincubated with Congo red for 30 min, then added to the cell culture medium to give a final concentration of 30 μM. Cells were treated for 22 h with human amylin in the presence or absence of 100 μM Congo red. Cell viability was determined by double-staining with calcein-AM and ethidium homodimer-1. Green fluorescence of live cells and red fluorescence marking nuclei of dead cells were simultaneously visualized using a Zeiss Axiovert S100 microscope equipped with a Zeiss filter set # 09. Photographs were taken at 400× magnification using a Zeiss AxioCam digital camera.
A. Representative fluorescence micrograph of RINm5F cells treated with 30 μM human amylin for 22 h and stained with calcein-AM and ethidium homodimer-1 to show live cells (green) and dead cells (red). […] B. A representative micrograph of RINm5F cells treated with 30 μM human amylin and 100 μM Congo red stained as above. […] The percentage of live cells was determined for cells treated for 22 h with vehicle; 30 μM human amylin; 30 μM human amylin in the presence of 100 μM Congo red; or 30 μM rat amylin. Experiments were repeated independently 10 times except for human amylin plus Congo red (A+CR) which was repeated five times. Error bars represent the s.e.m of live and dead cell counts over 6-12 fields per condition.

human amylin [1] = molecular target: T1, human amylin (Homo sapiens, UniProt P10997); test: Electron microscopy of human amylin fibrils; format: biochemical; parameters: Amylin is a 37-residue; C-terminally amidated peptide having a disulfide bridge between the cysteines at residues 2 and 7; purchased Bachem Calif; (Torrance, Calif.); host or cells: chemical synthesis
T1 sequence (P10997 34-70 limits assumed): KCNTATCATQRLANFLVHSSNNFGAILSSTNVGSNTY
Description: Electron Microscopy. […] Samples were removed at various time points and prepared for electron microscopy. Aliquots (8 μl) of the amylin fibril preparations were absorbed to glow-discharged carbon-coated collodion film on 200-mesh copper grids for 1 min. Grids were blotted, washed twice in droplets of deionised water and stained with 2% (w/v) uranyl acetate. Grids were examined in a Phillips Technai transmission electron microscope operated at 120 kV.
Samples were removed at various time points and prepared for electron microscopy according to the procedure described in the methods.
Electron Microscopy of human amylin fibrils in the presence and absence of quinacrine (FIG. 5). A 100 fold molar excess of quinacrine was incubated with human amylin. Samples were removed at various time points and prepared for electron microscopy according to the procedure described in the methods.
Electron Microscopy of human amylin fibrils in the presence and absence of selected polycyclic compounds (FIG. 6). […] Samples were removed and prepared for electron microscopy as described in the Methods. All experiments were performed in triplicate and the pictures above are representative of at least 6 photographs taken at each magnification.

human amylin [2] = molecular target: T1, human amylin; conditions: 10 μM thioflavin-T
Description: Thioflavin-T binding fluorescent assays. The effects of various polycyclic compounds on islet amyloid formation were measured by fluorescence spectroscopy, using a SpectraMAX Gemini XS Fluorescence Spectrophotometer (Molecular Devices Corporation, Sunnyvale, Calif.). Excitation and emission maxima were set to 450 nm and 510 nm respectively using a cutoff filter at 495 nm. Thioflavin-T binds to amylin fibrils, but not to monomeric amylin (Goldsbury et al., (1999), J. Mol. Biol., 285:33-39). […] The rate of amylin fibril formation was determined by following thioflavin-T fluorescence in the presence or absence of the potential inhibitory drug. […] Background fluorescence by acridine and acridine orange in the absence of amylin was subtracted from the experimental results. The control preparation contained human amylin and thioflavin-T in the absence of drug. The rate of fluorescence enhancement under these conditions was used to compare amylin fibril formation in the absence and presence of the drug. All other experimental conditions were identical.
Tri-prolyl amylin and rat amylin with thioflavin-T were also used as additional controls.
Each data point represents the mean±s.e.m of three separate reactions.
Effect of chlorpromazine on enhancement of thioflavin-Tfluorescence by human amylin (FIG. 2). Chlorpromazine (700 μM) (π) was incubated in 10 mM tris p H 7.4, with monomeric human amylin (70 μM) in the presence of thioflavin-T (10 μM). The fluorescence of the reaction was monitored over 24 hours as described in the methods. […] Each data point represents the mean±s.e.m of three separate reactions.
Effect of selected polycylic compounds on enhancement of thioflavin-Tfluorescence by human amylin (FIG. 3). Acridine, acridine orange, neutral red and methylene blue are selected examples of fused tricyclic ring compounds. […] Compound structures are shown adjacent to the appropriate graph. […] Fluorescence was monitored over 24 h as described in the Methods. A preparation containing human amylin and thioflavin-T only (▪), was included as a comparison in the absence of drug. […] Each data point represents the mean±s.e.m of three independent experiments.

human amylin [3] = molecular target: T1, human amylin; test: Radiolabelled precipitation assay of amylin fibril formation; format: biochemical; parameters: Amylin is a 37-residue; C-terminally amidated peptide having a disulfide bridge between the cysteines at residues 2 and 7; purchased Bachem Calif; (Torrance, Calif.); host or cells: chemical synthesis; conditions: for effect on precipitable amyloid formation: 200 μM compound, 10 μM human amylin, 16,000×g (FIG. 8)
Description: Radiolabelled Precipitation Assays. The precipitation of radiolabelled human and rat amylin fibrils was used as an independent method to monitor assembly of amylin fibrils in the presence or absence of potential inhibitors of amylin fibril formation. […] Incubation mixtures were then centrifuged at either 16,000×g or 100,000×g, for 20 min, and the amount of [^3H]-human amylin remaining in the supernatant after centrifugation was determined (Beckman LSW 3801 β-counter, USA). Results were expressed as percentages of precipitable counts per minute, relative to total radioactivity in the supernatant.
Incorporation of [^3H]-amylin into amylin fibrils was followed for 24 hours. Human amylin fibrils were precipitated by centrifugation at either 16,000×g (FIG. 7A) or at 100,000×g (FIG. 7B). Rat amylin (10 μM) in the presence of [^3H]-rat amylin was used as a non-fibril forming control (♦) (FIG. 7A). The results are shown as the percentage of precipitable radioactive amylin, relative to total radioactivity in the supernatant at each time point. Each data point represents the mean±s.e.m of three separate reactions.
The incorporation of radioactive monomeric amylin into the human amylin fibrils as they form, can be used to measure the rate at which amylin fibrils form in the presence or absence of a potential inhibitory drug. Amylin fibrils can be separated from solution by centrifugation and the amount of radioactive amylin precipitated in the amylin fibril pellet is then used as a measure of the amount of amylin fibrils present at that time.
Thioflavin-T, although not polycyclic, is widely used in fluorescent assays to measure amylin fibril formation. Incorporation of radioactivity into the pellet of an aliquot of the reaction mixture centrifuged at 16,000×g, for 20 minutes was monitored over the time periods indicated. Rat amylin (10 μM) with [^3H]-rat amylin added was used as a non fibril forming control (∘) in each experiment. The results are shown as the percentage of precipitable radioactive amyloid, relative to total radioactivity in the supernatant at each time point. Each data point represents the mean±s.e.m of three separate experiments.

human amylin [4] = molecular target: T1, human amylin; test: Circular dichroism assay of amylin conformation; format: biochemical; parameters: Amylin is a 37-residue; C-terminally amidated peptide having a disulfide bridge between the cysteines at residues 2 and 7; purchased Bachem Calif; (Torrance, Calif.); host or cells: chemical synthesis; conditions: 200 μM Amaranth, approximately 4 μM human amylin, 4% HFIP (FIG. 9F)
Description: Preparation of monomeric human amylin. Human amylin (batch 0551805) was obtained from Bachem (Torrence, Calif.). Stock solutions of amylin were prepared as described by Padrick and Miranker, 2002. Human amylin was solubilised in 6M guanidine HCL/50 mM potassium phosphate, pH 6.0, and loaded onto a C18 reversed-phase spin column (Harvard Biosciences). The column was then washed sequentially with 10% Acetonitrile, 0.2% trifluoroacetic acid and water. Monomeric amylin was eluted in 100% HFIP (hexafluoroisopropanol). This stock solution of amylin was then used for all Circular Dichroism experiments.
Circular Dichroism Assay. Circular dichroism spectra were measured on a Pi-Star 180 spectrometer (Applied Photophysics, Leatherhead, UK). Measurements were carried out in either 100% HFIP or 100 mM potassium chloride/50 mM potassium phosphate buffer (pH 7.4) and 2.5% HFIP at 25° C. A stock solution of monomeric human amylin was diluted into buffer to a final concentration of 2.5% HFIP and approximately 5 μM amylin to initiate amylin fibril formation. Spectra were collected at 1 nm intervals with a sample period of 25 μs and adaptive sampling of ±0.01 mdeg. Measurements were recorded immediately following addition of the human amylin stock solution to phosphate buffer in the presence or absence of Congo red or amaranth.
Human amylin (100 μg) was purified on a C18 spin column to give a stock solution in 100% HFIP as described in the methods. A spectrum of this stock solution was collected at 1 nm intervals in a 0.1 cm path length quartz cell (FIG. 9B). The stock solution of monomeric amylin in 100% HFIP was diluted to 2.5% HFIP in 100 mM potassium chloride/50 mM potassium phosphate buffer (pH 7.4). Human amylin concentration was approximately 5 μM. A spectrum was collected at 1 nm intervals in a 0.5 cm path length quartz cell in the absence (FIG. 9C) or presence of 20-fold molar excess of Congo red over human amylin (FIG. 9D). The stock solution of monomeric amylin in 100% HFIP was diluted to 4% HFIP in 100 mM potassium chloride/50 mM potassium phosphate buffer (pH 7.4) containing decreasing concentrations of Congo red as indicated in the Figure. Human amylin concentration was approximately 4 μM. Spectra were collected at 1 nm intervals in a 0.1 cm path length quartz cell (FIG. 9E). The stock solution of monomeric amylin in 100% HFIP was diluted to 4% HFIP in 100 mM potassium chloride/50 mM potassium phosphate buffer (pH 7.4) containing 200 μM Amaranth. Human amylin concentration was approximately 4 μM. Spectra were collected at 1 nm intervals in a 0.1 cm path length quartz cell (FIG. 9F).

[5] = 1200 μM compound (20-fold molar excess), 60 μM human amylin, over 24 h (FIG. 3)
[6] = 1200 μM compound, 60 μM human amylin, 10 mM tris pH 7.4, 24 h (FIG. 6)

For human amylin, the “cytotoxicity of amylin peptide to RINm5F cells” value (RINm5F cells) was “significant increase in cell death”.
With “rat amylin: synthetic rat amylin from Bachem; non-fibril forming control” the “cytotoxicity of amylin peptide to RINm5F cells” value (RINm5F cells) was “not cytotoxic”.
`CCN(CC)CCCC(C)Nc1c2ccc(Cl)cc2nc2ccc(OC)cc12` (stereo not drawn) [quinacrine] was tested, and the “rate of human amylin fibril formation (electron microscopy)” value (human amylin [1]; 7000 μM quinacrine, 70 μM human amylin, 1.5, 5 and 26 hours) was “appears to slow the rate of human amylin fibril formation” and the “morphology of human amylin fibrils (electron microscopy)” value (“morphology of human amylin fibrils” for short) (human amylin [1]; 7000 μM quinacrine, 70 μM human amylin, 5 hours and 26 hours) was “large aggregates with few defined fibrils”.
In the case of `CN(C)[C@@H]1C(=O)C(C(N)=O)=C(O)[C@@]2(O)C(=O)C3=C(O)c4c(O)cccc4[C@@](C)(O)[C@H]3C[C@@H]12` [tetracycline], the “enhancement of thioflavin-T fluorescence by human amylin” value (“enhancement” below) (human amylin [2]; 700 μM compound, 70 μM human amylin, 10 mM tris pH 7.4, over 72 hours (FIG. 1)) is reported as “initial but significantly decreased formation of a mylin fibril-associated fluorescence up to 2 h ours, followed by a gradual decrease in fluorescence”, the “enhancement” value (human amylin [2]; [5]) is reported as “immediate increase in fluorescence occurred, followed by a gradual decrease in fluorescence over the next 24 h” and the “reduction in the incorporation of radioactive human amylin into precipitable amylin fibrils” value (human amylin [3]; 100 μM tetracycline, 10 μM human amylin, 16,000×g) is reported as about 50%. For the same molecule, the “percentage of precipitable amylin fibrils on centrifugation at 100,000×g” value (human amylin [3]; 100 μM tetracycline, 10 μM human amylin, 100,000×g (FIG. 7B)) was “unaffected”, the “percentage of precipitable amyloid, after the decrease” value (human amylin [3]; 200 μM tetracycline, 10 μM human amylin, 50 h incubation period) was about 60% and the “percentage of precipitable amyloid, before the decrease” value (human amylin [3]; 200 μM tetracycline, 10 μM human amylin, start of the decrease) was “approximately 85%”. The “rate of formation of human amylin fibrils (electron microscopy)” value (human amylin [1]; 700 μM tetracycline, 70 μM human amylin, 1.5 hours and 5 hours) was “appears to slow the rate of formation of human amylin fibrils”, the “morphology of human amylin fibrils” value (human amylin [1]; 700 μM tetracycline, 70 μM human amylin, 29 hours and 48 hours) was “short fragmented fibrils” and the “morphology of human amylin fibrils” value (human amylin [1]; [6]) was “short fragmented structures”. For the same molecule, the “morphology of pre-formed amylin fibrils (electron microscopy)” value (human amylin [1]; human amylin pre-incubated for 20 h, then tetracycline for 48 h) was “fragments of amylin fibrils interdispersed with smaller fibrils” and the “intrinsic cytotoxicity of compound to RINm5F β cells” value (RINm5F cells; relative molar ratios which produced suppression of amyloid aggregation (low μM)) was “cytotoxic”.
With `CN(C)CCCN1c2ccccc2Sc2ccc(Cl)cc21` [chlorpromazine] the “inhibition of amylin fibril formation” value (human amylin [2]; 700 μM chlorpromazine, 70 μM human amylin, over 24 hours (FIG. 2)) was “approximately 60%”, the “enhancement” value (human amylin [2]; [5]) was “little inhibition of amylin fibril associated thioflavin-T fluorescence enhancement” and the “effect on precipitable amyloid formation” value (human amylin [3]) was “no effects on amyloid formation”. For the same molecule, the “morphology of human amylin fibrils” value (human amylin [1]; [6]) was “still formed characteristic amylin fibrils”.
In the case of `Cc1ccc2c(c1)sc(-c1ccc(N(C)C)cc1)[n+]2C.[Cl-]` [thioflavin-T], the “effect on precipitable amyloid formation” value (human amylin [3]) is reported as “no effects on amyloid formation”.
With `O=S(=O)([O-])c1ccc2c(N=Nc3ccc(S(=O)(=O)[O-])c4ccccc34)c(O)c(S(=O)(=O)[O-])cc2c1.[Na+].[Na+].[Na+]` [Amaranth] the “effect on β-conformer formation of human amylin (circular dichroism)” value (human amylin [4]) was “prevents formation of β-conformers and instead arrests the amylin peptide in an α-helical conformation”.
In the case of `c1ccc2nc3ccccc3cc2c1` [acridine], the “enhancement” value (human amylin [2]; [5]) is reported as “moderate reduction in thioflavin-T enhanced fluorescence” and the “effect on precipitable amyloid formation” value (human amylin [3]) is reported as “no effects on amyloid formation”.
In the case of `CN(C)c1ccc2nc3ccc(N(C)C)cc3[s+]c2c1` [methylene blue], the “enhancement” value (human amylin [2]; [5]) is reported as “no increase in thioflavin-T enhanced fluorescence”, the “enhancement” value (human amylin [2]; 1200 μM compound (20-fold molar excess), 60 μM human amylin, over 24 h (FIG. 3), listed as Methylene blue) is reported as “complete inhibition” and the “effect on precipitable amyloid formation” value (human amylin [3]) is reported as “no effects on amyloid formation”. For the same molecule, the “effect on precipitable amyloid formation” value (human amylin [3]; listed as Methylene blue) was “no effect”.
